# Test results as given in patent US20200031825A1, “HETEROAROMATIC-FUSED IMIDAZOLYL AMIDES, COMPOSITIONS AND USES THEREOF AS STING AGONISTS” (Trillium Therapeutics Inc., priority 2018, published 2020).
# Counter-ions that a name gives are not always drawn. Like-named read-outs stand apart in the source and are kept apart here.
# Assays:
# Format in all cases: cell-based
# [1] = target: hSTING-HAQ (Homo sapiens, UniProt Q86WV6, G230A/H232R/R293Q/R71H); assay: Cellular Functional Assay I: ISRE-SEAP reporter in HEK-293T-Dual Null cells transfected with hSTING-HAQ; conditions: HEK-293T-Dual Null, hSTING-HAQ
# [2] = target: T1, hSTING-Q (Homo sapiens, UniProt Q86WV6, R293Q); assay: Cellular Functional Assay I: ISRE-SEAP reporter, hSTING-Q allele
# T1 construct: expressed in transfected cells
# [3] = target: hSTING-wt (Homo sapiens, UniProt Q86WV6); assay: Cellular Functional Assay I: ISRE-SEAP reporter in HEK-293T-Dual Null cells transfected with hSTING-wt; conditions: HEK-293T-Dual Null, hSTING-wt
# [4] = target: T2, hSTING-AQ (Homo sapiens, UniProt Q86WV6, G230A/R293Q); assay: Cellular Functional Assay I: ISRE-SEAP reporter, hSTING-AQ allele
# T2 construct: expressed in transfected cells
# [5] = target: hSTING-H232 (Homo sapiens, UniProt Q86WV6); assay: Cellular Functional Assay I: ISRE-SEAP reporter in HEK-293T-Dual Null cells transfected with hSTING-H232; conditions: HEK-293T-Dual Null, hSTING-H232
# [6] = target: T3, mSTING-wt (Mus musculus, UniProt Q3TBT3); assay: Cellular Functional Assay I: ISRE-SEAP reporter in HEK-293T-Dual Null cells transfected with mouse STING
# T3 sequence (Q3TBT3 1-378): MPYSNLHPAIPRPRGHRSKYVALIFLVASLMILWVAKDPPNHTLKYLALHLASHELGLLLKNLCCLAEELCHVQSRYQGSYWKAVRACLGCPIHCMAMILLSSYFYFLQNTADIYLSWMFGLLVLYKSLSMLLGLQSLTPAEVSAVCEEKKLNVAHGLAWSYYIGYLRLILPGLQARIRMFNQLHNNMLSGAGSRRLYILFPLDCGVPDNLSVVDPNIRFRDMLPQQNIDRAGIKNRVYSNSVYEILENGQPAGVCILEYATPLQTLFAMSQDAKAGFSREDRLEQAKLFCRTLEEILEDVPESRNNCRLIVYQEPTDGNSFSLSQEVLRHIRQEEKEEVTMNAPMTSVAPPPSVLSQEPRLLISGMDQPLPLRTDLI
# [7] = SEAP reporter, HEK-293T-Dual Null, mSTING-wt, read-out: EC50 mSTING-wt
# Sequence of hSTING-wt (Q86WV6 whole entry H232R): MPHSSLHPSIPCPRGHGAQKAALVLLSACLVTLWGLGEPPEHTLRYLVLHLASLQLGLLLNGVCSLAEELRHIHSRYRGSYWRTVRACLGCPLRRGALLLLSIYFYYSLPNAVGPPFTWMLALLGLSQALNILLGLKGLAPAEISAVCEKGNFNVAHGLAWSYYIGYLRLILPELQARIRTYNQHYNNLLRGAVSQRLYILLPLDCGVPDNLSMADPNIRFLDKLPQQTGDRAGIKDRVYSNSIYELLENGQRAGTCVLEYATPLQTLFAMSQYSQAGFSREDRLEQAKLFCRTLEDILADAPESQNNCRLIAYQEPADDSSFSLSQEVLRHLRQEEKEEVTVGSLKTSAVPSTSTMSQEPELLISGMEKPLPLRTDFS
# T2 sequence (Q86WV6 whole entry G230A/H232R/R293Q): as the sequence (Q86WV6 whole entry H232R) above, with G230A, R293Q counted along it
# Sequence of hSTING-H232 (Q86WV6 whole entry): as the sequence (Q86WV6 whole entry H232R) above, with R232H counted along it
# Sequence of hSTING-HAQ (Q86WV6 whole entry R71H/G230A/H232R/R293Q): as the sequence (Q86WV6 whole entry H232R) above, with R71H, G230A, R293Q counted along it
# T1 sequence (Q86WV6 whole entry R293Q): as the sequence (Q86WV6 whole entry H232R) above, with R232H, R293Q counted along it
Structure (SMILES),EC50 [1] [nM],EC50 [2] [nM],EC50 [3] [nM],EC50 [4] [nM],EC50 [5] [nM],"EC50 [6, 7] [nM]",EC50 [6] [nM]
"CCn1nc(C)cc1C(=O)Nc1nc2cc(C(N)=O)cnc2n1C/C=C/CNC(=O)OCc1ccccc1 [Compound F, benzyl N-[(E)-4-[6-carbamoyl-2-[(2-ethyl-5-methyl-pyrazole-3-carbonyl)amino]imidazo[4,5-b]pyridin-3-yl]but-2-enyl]carbamate]",> 500,> 500,> 500,> 500,> 500,> 500,–
"CCn1nc(C)cc1C(=O)Nc1nc2cc(C(N)=O)sc2n1C/C=C/CNC(=O)OC(C)(C)C [Compound H, tert-butyl N-[(E)-4-[5-carbamoyl-2-[(2-ethyl-5-methyl-pyrazole-3-carbonyl)amino]thieno[2,3-d]imidazol-3-yl]but-2-enyl]carbamate]",> 500,> 500,> 500,> 500,> 500,> 500,–
"CCn1nc(C)cc1C(=O)Nc1nc2cc(C(N)=O)cnc2n1CCCCNC(=O)OC(C)(C)C [Compound E, tert-butyl N-[4-[6-carbamoyl-2-[(2-ethyl-5-methyl-pyrazole-3-carbonyl)amino]imidazo[4,5-b]pyridin-3-yl]butyl]carbamate]",> 500,> 500,> 500,> 500,> 500,> 500,–
"CCn1nc(C)cc1C(=O)Nc1nc2cc(C(N)=O)cnc2n1CCCCNC(=O)OCc1ccccc1 [Compound G, benzyl N-[4-[6-carbamoyl-2-[(2-ethyl-5-methyl-pyrazole-3-carbonyl)amino]imidazo[4,5-b]pyridin-3-yl]butyl]carbamate]",> 500,> 500,> 500,> 500,> 500,> 500,–
"CCn1nc(C)cc1C(=O)Nc1nc2cc(C(N)=O)cc(C)c2n1C/C=C/Cn1c(NC(=O)c2cnc(C)s2)nc2cc(C(N)=O)cnc21 [Compound C, N-[6-carbamoyl-3-[(E)-4-[5-carbamoyl-2-[(2-ethyl-5-methyl-pyrazole-3-carbonyl)amino]-7-methyl-benzimidazol-1-yl]but-2-enyl]imidazo[4,5-b]pyridin-2-yl]-2-methyl-thiazole-5-carboxamide Hydrochloride]",> 500,1 to 500,1 to 500,1 to 500,1 to 500,> 500,–
"CCn1nc(C)cc1C(=O)Nc1nc2cc(C(N)=O)ccc2n1C/C=C/Cn1c(NC(=O)c2cc(C)nn2CC)nc2cc(C(N)=O)sc21 [Compound M, 3-[(E)-4-[5-carbamoyl-2-[(2-ethyl-5-methyl-pyrazole-3-carbonyl)amino]benzimidazol-1-yl]but-2-enyl]-2-[(2-ethyl-5-methyl-pyrazole-3-carbonyl)amino]thieno[2,3-d]imidazole-5-carboxamide Tetrahydrochloride]",> 500,1 to 500,1 to 500,> 500,1 to 500,1 to 500,–
"CCn1nc(C)cc1C(=O)Nc1nc2cc(C(N)=O)sc2n1C/C=C/Cn1c(NC(=O)c2cc(C)nn2CC)nc2cc(C(N)=O)cc(OCCOC(F)F)c21 [Compound N, 3-[(E)-4-[5-carbamoyl-7-[2-(difluoromethoxy)ethoxy]-2-[(2-ethyl-5-methyl-pyrazole-3-carbonyl)amino]benzimidazol-1-yl]but-2-enyl]-2-[(2-ethyl-5-methyl-pyrazole-3-carbonyl)amino]thieno[2,3-d]imidazole-5-carboxamide Tetrahydrochloride]",> 500,1 to 500,< 1,> 500,< 1,1 to 500,–
CCn1nc(C)cc1C(=O)Nc1nc2cc(C(N)=O)cnc2n1C/C=C/Cn1c(NC(=O)c2cc(C)nn2CC)nc2cc(C(N)=O)cc(OCCCO)c21 [Compound R],1 to 500,1 to 500,1 to 500,1 to 500,1 to 500,–,1 to 500
"CCn1nc(C)cc1C(=O)Nc1nc2cc(C(N)=O)cnc2n1C/C=C/CNC(=O)OC(C)(C)C [Compound D, tert-butyl N-[(E)-4-[6-carbamoyl-2-[(2-ethyl-5-methyl-pyrazole-3-carbonyl)amino]imidazo[4,5-b]pyridin-3-yl]but-2-enyl]carbamate]",> 500,> 500,> 500,> 500,> 500,> 500,–

# Continued, in another order:
EC50 [1] [nM],EC50 [2] [nM],EC50 [3] [nM],EC50 [4] [nM],EC50 [5] [nM],"EC50 [6, 7] [nM]",Structure (SMILES),EC50 [6] [nM]
1 to 500,1 to 500,1 to 500,1 to 500,1 to 500,1 to 500,"CCn1nc(C)cc1C(=O)Nc1nc2cc(C(N)=O)cnc2n1C/C=C/Cn1c(NC(=O)c2cc(C)nn2CC)nc2cc(C(N)=O)cc(OCCCN(C)CCOC)c21 [Compound V, 3-[(E)-4-[5-carbamoyl-2-[(2-ethyl-5-methyl-pyrazole-3-carbonyl)amino]-7-[3-[2-methoxyethyl(methyl)amino]propoxy]benzimidazol-1-yl]but-2-enyl]-2-[(2-ethyl-5-methyl-pyrazole-3-carbonyl)amino]imidazo[4,5-b]pyridine-6-carboxamide]",–
–,–,1 to 500,–,1 to 500,–,"CCn1nc(C)cc1C(=O)Nc1nc2cc(C(N)=O)sc2n1C/C=C/Cn1c(NC(=O)c2cc(C)nn2CC)nc2cc(C(N)=O)cc(OCCCNC)c21 [Compound Q, 3-[(E)-4-[5-carbamoyl-2-[(2-ethyl-5-methyl-pyrazole-3-carbonyl)amino]-7-[3-(methylamino)propoxy]benzimidazol-1-yl]but-2-enyl]-2-[(2-ethyl-5-methyl-pyrazole-3-carbonyl)amino]thieno[2,3-d]imidazole-5-carboxamide]",–
1 to 500,1 to 500,1 to 500,1 to 500,1 to 500,1 to 500,"CCn1nc(C)cc1C(=O)Nc1nc2cc(C(N)=O)cnc2n1C/C=C/Cn1c(NC(=O)c2cc(C)nn2CC)nc2cc(C(N)=O)cc(OCCCN(C)C)c21 [Compound P, 3-[(E)-4-[5-carbamoyl-7-[3-(dimethylamino)propoxy]-2-[(2-ethyl-5-methyl-pyrazole-3-carbonyl)amino]benzimidazol-1-yl]but-2-enyl]-2-[(2-ethyl-5-methyl-pyrazole-3-carbonyl)amino]imidazo[4,5-b]pyridine-6-carboxamide]",–
1 to 500,1 to 500,1 to 500,1 to 500,1 to 500,1 to 500,"CCn1nc(C)cc1C(=O)Nc1nc2cc(C(N)=O)cnc2n1C/C=C/Cn1c(NC(=O)c2cc(C)nn2CC)nc2cc(C(N)=O)cc(OCCCN3CCCOCC3)c21 [Compound Z, 3-[(E)-4-[5-carbamoyl-2-[(2-ethyl-5-methyl-pyrazole-3-carbonyl)amino]-7-[3-(1,4-oxazepan-4-yl)propoxy]benzimidazol-1-yl]but-2-enyl]-2-[(2-ethyl-5-methyl-pyrazole-3-carbonyl)amino]imidazo[4,5-b]pyridine-6-carboxamide]",–
–,–,1 to 500,–,1 to 500,–,"CCn1nc(C)cc1C(=O)Nc1nc2cc(C(N)=O)sc2n1C/C=C/Cn1c(NC(=O)c2cc(C)nn2CC)nc2cc(C(N)=O)cc(OCCCN(C)C)c21 [Compound O, 3-[(E)-4-[5-carbamoyl-7-[3-(dimethylamino)propoxy]-2-[(2-ethyl-5-methyl-pyrazole-3-carbonyl)amino]benzimidazol-1-yl]but-2-enyl]-2-[(2-ethyl-5-methyl-pyrazole-3-carbonyl)amino]thieno[2,3-d]imidazole-5-carboxamide]",–
1 to 500,1 to 500,1 to 500,1 to 500,1 to 500,1 to 500,"CCn1nc(C)cc1C(=O)Nc1nc2cc(C(N)=O)cnc2n1C/C=C/Cn1c(NC(=O)c2cc(C)nn2CC)nc2cc(C(N)=O)cc(OCCCNC)c21 [Compound S, 3-[(E)-4-[5-carbamoyl-2-[(2-ethyl-5-methyl-pyrazole-3-carbonyl)amino]-7-[3-(methylamino)propoxy]benzimidazol-1-yl]but-2-enyl]-2-[(2-ethyl-5-methyl-pyrazole-3-carbonyl)amino]imidazo[4,5-b]pyridine-6-carboxamide]",–
> 500,1 to 500,1 to 500,> 500,1 to 500,1 to 500,"CCn1nc(C)cc1C(=O)Nc1nc2cc(C(N)=O)cnc2n1C/C=C/Cn1c(NC(=O)c2cc(C)nn2CC)nc2cc(C(N)=O)cnc21 [Compound L, 3-[(E)-4-[6-carbamoyl-2-[(2-ethyl-5-methyl-pyrazole-3-carbonyl)amino]imidazo[4,5-b]pyridin-3-yl]but-2-enyl]-2-[(2-ethyl-5-methyl-pyrazole-3-carbonyl)amino]imidazo[4,5-b]pyridine-6-carboxamide]",–
